Assay results published in ChEMBL document CHEMBL5252652, “Benzo[b]naphtho[2,1-d]furans and 2-Phenylnaphthalenes from Streblus usambarensis” (J Nat Prod, 2023).
In brackets after ≈: the same amount, converted by molar mass.

How the values were obtained:
MCF7 = assay: Cytotoxicity against human MCF7 cells assessed as reduction in cell viability incubated for 24 hrs by PrestoBlue reagent based fluorescence assay; format: toxicity; details: mcf7, 24 h
Bacillus subtilis = assay: Antibacterial activity against Bacillus subtilis assessed as inhibition of bacterial growth incubated for 4 to 20 hrs by resazurin based microplate reader analysis; format: functional; details: time 4-20 hrs

| Compound | Activity (MCF7) | MIC (Bacillus subtilis) [µM] |
| --- | --- | --- |
| COc1ccc2ccc3c4cc(O)c(OC)c(CC=C(C)C)c4oc3c2c1 | Non-Toxic |  |
| CC1(C)C=Cc2c(-c3ccc4ccc(O)cc4c3)ccc(O)c2O1 | Non-Toxic | 9 (≈ 2.87 µg/mL) |
| COc1c(O)cc2c(oc3c4cc(O)ccc4ccc23)c1CC=C(C)C | Non-Toxic |  |
